In patent US10945978B2, “Treatment and diagnosis of melanoma” (The Rockefeller University, priority 2012, dated 2021):
Where a name gives a salt, the structure may show the parent alone. One block for each compound: values may come before it.

Key:
ApoE = ApoE expression in mice fed LXR agonist diet (western blot, qRT-PCR); type: in vivo, mouse; conditions: 10 days; for ApoE protein expression in systemic adipose, lung, and brain tissues: chow 20 mg/kg, western blot; for ApoE transcript levels in circulating white blood cells: diet 20 mg/kg, qRT-PCR
Method: Mouse lung and brain tissue samples were homogenized on ice in RIPA buffer (Sigma-Aldrich) supplemented with protease inhibitors (Roche). Mouse adipose tissue was homogenized on ice in TNET buffer (1.5 mM Tris pH 7.5, 150 mM NaCl, 2 mM EDTA 1% triton, protease inhibitors). Total protein lysate (2 jag) was separated by SDS-PAGE, transferred to PVDF membrane, and blotted with an anti-mouse ApoE (ab20874, Abcam) and anti-tubulin α/β (2148, Cell Signaling) antibodies. RNA was extracted from whole cell lysates using the Total RNA Purification Kit (17200, Norgen, Thorold, Canada). 600 ng of total RNA was then reverse transcribed into cDNA using the cDNA First-Strand Synthesis Kit (18080-051, Invitrogen), and quantitative real-time PCR amplification was performed as previously described (Pencheva et al., 2012) using an ABI Prism 7900HT Real-Time PCR System (Applied Biosystems, Austin, Tex.). Each PCR reaction was carried out in quadruplicates. Gene expression was normalized to GAPDH, which was used as an endogenous control.

[1] = tested on: ApoE promoter fused to ME.1 or ME.2; assay: ApoE promoter activity assay (luciferase); type: cell-based, human; conditions: MeWo cells; 1 μM, 24 hours
Description: The ApoE promoter, consisting of a sequence spanning 980 base pairs upstream and 93 base pairs downstream of the ApoE gene, was cloned into a pGL3-Basic vector (E1751, Promega Corporation, Madison, Wis.) upstream of the firefly luciferase gene using NheI and SacI restriction enzymes. Then, multi-enhancer elements 1 (ME. 1) and 2 (ME.2) were cloned directly upstream of the ApoE promoter using MluI and SacI restriction enzymes. To assess ApoE promoter- and ME.1/ME.2-driven transcriptional activation by LXR agonists, 5×10^4 MeWo cells were seeded into a 24-well plate. The following day, 100 ng of pGL3-ME. […] To assess transcriptional activation by LXRα or LXR(3, 5×10^4 MeWo cells expressing a control shRNA or shRNA targeting LXRα or LXRβ were seeded into a 24-well plate. The following day, 200 ng of pGL3-ME. 1/ME.2-ApoE promoter construct and 2 ng of pRL-CMV renilla luciferase were co-transfected into cells in the presence of DMSO, GW3965, or T0901317 at 1 μM, each condition in quadruplicate. After 24 hours, cells were lysed, and cell lysate was analyzed for firefly and renilla luciferase activity using the Dual Luciferase Assay System (E1960, Promega) and a Bio-Tek Synergy NEO Microplate Reader. Firefly luciferase signal was normalized to renilla luciferase signal and all data are expressed relative to the luciferase activity ratio measured in the DMSO-treated control cells.

Extracellular ApoE = assay: ApoE ELISA in conditioned media; type: cell-based, human; conditions: MeWo cells; 1 μM, 72 hours
Method: Extracellular ApoE levels in serum-free conditioned media from melanoma cells treated with DMSO, GW3965, or T0901317 (1 μM each) were quantified using the ApoE ELISA kit (Innovative Research) at 72 hours following treatment.

[2] = tested on: human umbilical vein endothelial cells (HUVEC's); assay: Endothelial recruitment assay (HUVEC migration towards melanoma cells); type: cell-based; conditions: for ability of melanoma cells to recruit endothelial cells: MeWo, HT-144, SK-Mel-2, SK-Mel-334.2, 1 μM for 72 hours
Method: 5×10^4 cancer cells were seeded into 24-well plates approximately 24 hours prior to the start of the assay. HUVEC's were grown to 80% confluency and serum starved in EGM-2 media supplemented with 0.2% FBS for 16 hours. HUVEC's were then pulsed with Cell Tracker Red CMTPX dye (C34552, Invitrogen) for 45 minutes. Meanwhile, cancer cells were washed with PBS, 0.5 mL of 0.2% FBS EGM-2 media was added to each well, and a 3.0 μm HTS Fluoroblock insert (351151, BD Falcon, San Jose, Calif.) was placed into each well. 1×10^5 HUVEC's, resuspended in 0.5 mL of starvation media, were seeded into each trans-well insert, and the recruitment assay was allowed to proceed for 16-18 hours at 37° C. For neutralization antibody and/or recombinant protein experiments, antibody/protein was then added to each well at the appropriate concentration as indicated in the figures: 40 μg/mL anti-ApoE 1D7, 40 μg/mL anti-IgG, 100 μM rhApoE3, and 100 μM BSA. Upon completion of the assay, the inserts were processed and analyzed as described for the matrigel invasion assay above (See Matrigel Invasion Assay).
The endothelial recruitment assay was carried out as previously described (Pencheva et al., 2012; Png et al., 2012). Melanoma cells were treated with DMSO, GW3965, T0901317, or Bexarotene at 1 μM for 56 hours, after which 5×10^4 cells were seeded in a 24-well plate in the presence of each drug and allowed to attach for 16 hours prior to starting the assay. HUVEC cells were serum-starved overnight in EGM-2 media containing 0.2% FBS. The following day, 1×10^5 HUVEC cells were seeded into a 3.0 μm HTS Fluoroblock trans-well migration insert (351151, BD Falcon, San Jose, Calif.) fitted into each well containing cancer cells at the bottom. The HUVEC cells were allowed to migrate towards the cancer cells for 20 hours at 37° C., after which the inserts were processed as previously described (Pencheva et al., 2012). For ApoE antibody neutralization experiments, 40 μg/mL 1D7 anti-ApoE blocking antibody (Heart Institute, University of Ottawa, Ottawa, Canada) or 40 μg/mL anti-IgG control antibody (AB-108-C, R&D Systems, Minneapolis, Minn.) was added to each trans-well insert at the start of the assay.
Subsequently, 5×10^4 cancer cells were seeded into 24-well plates in the presence of each drug or DMSO and allowed to attach for 16 hours prior to starting the assay. Human umbilical vein endothelial cells (HUVEC cells) were serum-starved in 0.2% FBS-containing media overnight. The following day, 1×10^5 HUVEC cells were seeded into a 3.0 μm HTS Fluoroblock insert (351151, BD Falcon) fitted into each well containing the cancer cells at the bottom. The HUVEC cells were allowed to migrate towards the cancer cells for 20 hours, after which the inserts were washed in PBS, fixed in 4% PFA, labeled with DAPI, and mounted on slides. The basal side of each insert was imaged using an inverted fluorescence microscope (Zeiss Axiovert 40 CFL) at 5× magnification, and the number of DAPI-positive cells was quantified using ImageJ.

[3] = tested on: B16F10 mouse melanoma cells; assay: Subcutaneous B16F10 tumor growth in C57BL/6 mice; conditions: for suppression of tumor growth: 20 mg/kg
Method: Animals were palpated weekly for tumor formation, after which sizeable tumors were measured twice a week. Tumor volume was calculated as (small diameter)^2×(large diameter)/2.

Compound: O=C(O)Cc1cccc(OCCCN(Cc2cccc(C(F)(F)F)c2Cl)CC(c2ccccc2)c2ccccc2)c1 [GW3965 2, 3-[3-[N-(2-Chloro-3-trifluoromethylbenzyl)-(2,2-diphenylethyl)amino]propyloxy] phenylacetic acid hydrochloride]
- ApoE protein expression in systemic adipose, lung, and brain tissues (ApoE): significantly elevated
- ApoE transcript levels in circulating white blood cells (ApoE): upregulated
- activity of luciferase reporter with ApoE promoter fused to ME.1 or ME.2 [1]: enhance
- levels of secreted ApoE protein (Extracellular ApoE): elevated levels
- endothelial recruitment ([2]; MeWo cells pre-treated 48 hours): decreased
- ability of melanoma cells to recruit endothelial cells [2]: consistently suppressed
- suppression of tumor growth in mice genetically inactivated for ApoE ([3]; ApoE−/− mice, GW3965 diet 20 mg/kg, 7 days): completely ineffective
- suppression of tumor growth ([3]; oral, from tumors of 5-10 mm3): 67%
- reduction in tumor growth ([3]; oral, 100 mg/kg, from tumors of 5-10 mm3): 80%
- reduction in the growth of established large tumors ([3]; tumors ~150 mm3, chow containing GW3965 150 mg/kg): roughly 50%

- activity of luciferase reporter with ApoE promoter fused to ME.1 or ME.2 [1]: enhance
Compound: O=S(=O)(c1ccccc1)N(CC(F)(F)F)c1ccc(C(O)(C(F)(F)F)C(F)(F)F)cc1 [T0901317 1]
- ApoE protein expression in systemic adipose, lung, and brain tissues (ApoE): significantly elevated
- ApoE transcript levels in circulating white blood cells (ApoE): upregulated
- levels of secreted ApoE protein (Extracellular ApoE): elevated levels
- ability of melanoma cells to recruit endothelial cells [2]: consistently suppressed
- suppression of tumor growth ([3]; oral, from tumors of 5-10 mm3): 61%

Compound: recombinant human ApoE: recombinant human ApoE3 (4696, BioVision)
- migration of endothelial cells towards highly metastatic cancer cells ([2]; endothelial cells pre-incubated with ApoE3 100 μM for 24 hours, LM2 cells): significantly reduced
- endothelial recruitment ([2]; metastatic LM2 cells, recombinant ApoE3 100 μM vs BSA): significantly suppressed
